The values that follow are results of earlier work, collected in patent US10052352B2, “Therapeutic application of parenteral krill oil” (STABLE SOLUTIONS LLC, priority 2011, dated 2018).

For this series the following is noted: free acid.

Consider `O=C(c1ccccc1)c1ccc2n1CCC2C(=O)O` (stereo not shown) [ketorolac], for which the water solubility result is recorded as “highly water insoluble”.
